Assay results as given in PMC9863651, “Anti-Glioma Activity Achieved by Dual Blood–Brain Barrier/Glioma Targeting Naive Chimeric Peptides-Based Co-Assembled Nanophototheranostics” (Pharmaceutics, 2023).

Legend:
C6 glioma cells = assay: Scratch wound healing assay (cell migration); format: cell-based, Rat; conditions: 100 μg/mL, 1 h, NIR-808 10 min, 24 h after scraping
Description: Scratch wound healing assays of the PNPs, PINPs, and ICG (100 μg/mL) were studied in C6 cells as described previously. This was followed by imaging of the cells which migrated towards the cell-free zone in the scrape at 0 and 24 h, using a brightfield inverted microscope (IX71; Olympus Corp., Tokyo, Japan). The cell migration was analyzed by measuring the dimension of the gap distance using the Adobe Photoshop CC software. The details of the process being used are provided in the Supplementary Materials. […]
nanoparticle’s aqueous solution was monitored and recorded every single min by a digital […]
1.4.5. […]
1.4.6. Scratch Assay of PINPs Determined in C6 Glioma Cells […]
1.4.7. Localized Chemo-phototoxicity of PINPs Determined in C6 Cells
Next, we quantified the synergistic chemo-phototoxicity of PINPs (10 μg/mL) in comparison to other individual moieties [PNPs (chemotherapy) and ICG (phototherapy)] in C6 cells. […]
Following day cells were treated with different formulations for 30 min. […] Cells were incubated for another 24 h and were evaluated by standard MTT assay as described […]
Figure S1. Size distribution profile of self-assembled peptide nanostructures determined in a mixture of HFIP-water at a ratio of 1:19 v/v. […]

C6 cells = assay: Localized chemo-PTT/PDT toxicity, brightfield imaging; format: cell-based, Rat; conditions: 100 μg/mL, 30 min
Description: The localized collaborative chemo-phototoxicity of PINPs, in contrast to PNPs, was studied and then visualized using C6 cells. In short, to assess the thermal ablation effect, C6 cells (50,000/well in 6-well dishes) were seeded and cultured in complete media and they were treated with different formulations (100 μg/mL, for 30 min). The used complete growth media containing the formulations was then swapped with new phenol-free media without FBS. For a combined chemo-phototoxicity analysis, the corresponding wells containing cells were exposed to a NIR-808 laser for ~10 min, incubated for an additional 30 min, and subsequently imaged under a brightfield microscope (Olympus BX53; Tokyo, Japan).

CC1(C)C(/C=C/C=C/C=C/C=C2\N(CCCCS(=O)(=O)O)c3ccc4ccccc4c3C2(C)C)=[N+](CCCCS(=O)(=O)[O-])c2ccc3ccccc3c21 [ICG, indocyanine green]
wound closure (C6 glioma cells): ~ 100%
cell death (brightfield images) after NIR-808 exposure (C6 cells; NIR-808 ~10 min): no cell death
cell death (brightfield images) in the dark / without NIR-808 (C6 cells; no laser): no cell death
